Assay results reported in ChEMBL document CHEMBL1146709, “Tetrahydroisoquinoline based sulfonamide hydroxamates as potent matrix metalloproteinase inhibitors” (Bioorg Med Chem Lett, 2004).

Assays:
[1] = target: Matrix metalloproteinase-15 (Homo sapiens, UniProt P51511); test: Inhibition of matrix metalloprotease-15 (MMP-15)
[2] = target: Matrix metalloproteinase-16 (Homo sapiens, UniProt P51512); test: Inhibition of matrix metalloprotease-16 (MMP-16)
[3] = target: T1, Matrilysin (Homo sapiens, UniProt P09237)
T1 sequence (P09237 whole entry): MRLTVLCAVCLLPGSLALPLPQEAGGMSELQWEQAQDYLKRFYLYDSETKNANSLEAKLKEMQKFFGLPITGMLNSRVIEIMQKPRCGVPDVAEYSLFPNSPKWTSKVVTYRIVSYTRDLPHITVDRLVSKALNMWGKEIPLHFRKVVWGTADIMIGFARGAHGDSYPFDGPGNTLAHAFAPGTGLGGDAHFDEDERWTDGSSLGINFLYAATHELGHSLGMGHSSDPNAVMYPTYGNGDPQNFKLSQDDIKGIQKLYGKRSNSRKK

[4] = target: T2, Matrix metalloproteinase-26 (Homo sapiens, UniProt Q9NRE1); test: Inhibition of matrix metalloprotease-26 (MMP-26)
T2 sequence (Q9NRE1 whole entry): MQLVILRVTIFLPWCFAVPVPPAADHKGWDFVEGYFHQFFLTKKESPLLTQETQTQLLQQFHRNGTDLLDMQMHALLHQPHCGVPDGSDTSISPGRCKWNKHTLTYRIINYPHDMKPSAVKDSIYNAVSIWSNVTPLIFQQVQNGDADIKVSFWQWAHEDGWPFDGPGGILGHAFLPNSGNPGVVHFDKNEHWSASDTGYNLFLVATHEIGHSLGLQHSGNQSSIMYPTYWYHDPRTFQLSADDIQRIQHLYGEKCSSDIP

[5] = target: 72 kDa type IV collagenase (Homo sapiens, UniProt P08253); test: Inhibition of matrix metalloprotease-2 (MMP-2)
[6] = target: Matrix metalloproteinase-14 (Homo sapiens, UniProt P50281); test: Inhibition of matrix metalloprotease-14 (MMP-14)
[7] = target: T3, Interstitial collagenase (Homo sapiens, UniProt P03956); test: Inhibition of matrix metalloprotease-1 (MMP-1)
T3 sequence (P03956 whole entry): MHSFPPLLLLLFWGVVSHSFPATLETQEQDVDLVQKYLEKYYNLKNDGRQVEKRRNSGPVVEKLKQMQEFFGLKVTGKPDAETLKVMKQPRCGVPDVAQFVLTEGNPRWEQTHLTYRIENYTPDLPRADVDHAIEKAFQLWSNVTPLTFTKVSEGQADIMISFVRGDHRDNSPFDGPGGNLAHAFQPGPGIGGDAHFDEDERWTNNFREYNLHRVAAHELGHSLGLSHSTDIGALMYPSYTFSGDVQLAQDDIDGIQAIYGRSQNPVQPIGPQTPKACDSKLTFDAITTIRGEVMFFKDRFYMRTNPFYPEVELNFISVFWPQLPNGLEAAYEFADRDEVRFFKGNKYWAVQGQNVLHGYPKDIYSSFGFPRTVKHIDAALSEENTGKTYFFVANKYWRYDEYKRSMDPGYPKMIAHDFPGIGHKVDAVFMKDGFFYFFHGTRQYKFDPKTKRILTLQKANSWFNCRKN

[8] = target: Matrix metalloproteinase-9 (Homo sapiens, UniProt P14780); test: Inhibition of matrix metalloprotease-9 (MMP-9)
[9] = target: Macrophage metalloelastase (Homo sapiens, UniProt P39900); test: Inhibition of matrix metalloprotease-12 (MMP-12)
[10] = target: T1, Matrilysin; test: Inhibition of matrix metalloprotease-7 (MMP-7)
[11] = target: T3, Interstitial collagenase
[12] = target: T2, Matrix metalloproteinase-26; test: Inhibition of matrix metalloprotease-26 (MMP-26) (inactive up to 50 uM)

Chain of Macrophage metalloelastase (P39900 whole entry): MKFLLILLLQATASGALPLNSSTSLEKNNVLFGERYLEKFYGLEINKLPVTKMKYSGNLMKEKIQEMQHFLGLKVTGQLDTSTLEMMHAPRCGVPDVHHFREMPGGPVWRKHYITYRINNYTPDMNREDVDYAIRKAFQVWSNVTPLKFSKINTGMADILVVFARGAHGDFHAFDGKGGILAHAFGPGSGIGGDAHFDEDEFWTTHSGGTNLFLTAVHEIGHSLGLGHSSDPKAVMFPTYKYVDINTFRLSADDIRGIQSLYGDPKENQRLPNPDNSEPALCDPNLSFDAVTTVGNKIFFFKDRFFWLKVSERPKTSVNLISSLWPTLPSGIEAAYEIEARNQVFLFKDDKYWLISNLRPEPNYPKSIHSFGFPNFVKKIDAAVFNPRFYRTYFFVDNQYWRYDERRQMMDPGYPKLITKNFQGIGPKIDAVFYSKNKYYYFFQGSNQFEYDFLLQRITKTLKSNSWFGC
Chain of Matrix metalloproteinase-9 (P14780 whole entry): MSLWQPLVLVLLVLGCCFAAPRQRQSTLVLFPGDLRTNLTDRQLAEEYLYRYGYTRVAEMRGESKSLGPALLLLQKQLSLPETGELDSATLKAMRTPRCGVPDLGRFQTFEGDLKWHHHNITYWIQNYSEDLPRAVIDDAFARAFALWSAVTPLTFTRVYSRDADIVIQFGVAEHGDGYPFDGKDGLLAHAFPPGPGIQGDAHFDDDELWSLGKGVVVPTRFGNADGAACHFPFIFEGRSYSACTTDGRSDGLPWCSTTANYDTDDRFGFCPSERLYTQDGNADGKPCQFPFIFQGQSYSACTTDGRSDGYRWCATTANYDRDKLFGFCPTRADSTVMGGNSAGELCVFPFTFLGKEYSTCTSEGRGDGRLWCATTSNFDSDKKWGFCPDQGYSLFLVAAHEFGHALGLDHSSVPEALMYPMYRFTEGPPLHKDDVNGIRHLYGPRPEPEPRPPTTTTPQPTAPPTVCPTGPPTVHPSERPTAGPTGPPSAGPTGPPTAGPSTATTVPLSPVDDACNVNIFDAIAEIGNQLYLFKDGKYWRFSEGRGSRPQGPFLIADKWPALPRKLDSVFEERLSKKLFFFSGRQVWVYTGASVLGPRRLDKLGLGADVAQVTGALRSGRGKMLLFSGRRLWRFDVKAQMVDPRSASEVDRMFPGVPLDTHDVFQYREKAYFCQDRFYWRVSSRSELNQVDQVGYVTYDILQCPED
Chain of 72 kDa type IV collagenase (P08253 whole entry): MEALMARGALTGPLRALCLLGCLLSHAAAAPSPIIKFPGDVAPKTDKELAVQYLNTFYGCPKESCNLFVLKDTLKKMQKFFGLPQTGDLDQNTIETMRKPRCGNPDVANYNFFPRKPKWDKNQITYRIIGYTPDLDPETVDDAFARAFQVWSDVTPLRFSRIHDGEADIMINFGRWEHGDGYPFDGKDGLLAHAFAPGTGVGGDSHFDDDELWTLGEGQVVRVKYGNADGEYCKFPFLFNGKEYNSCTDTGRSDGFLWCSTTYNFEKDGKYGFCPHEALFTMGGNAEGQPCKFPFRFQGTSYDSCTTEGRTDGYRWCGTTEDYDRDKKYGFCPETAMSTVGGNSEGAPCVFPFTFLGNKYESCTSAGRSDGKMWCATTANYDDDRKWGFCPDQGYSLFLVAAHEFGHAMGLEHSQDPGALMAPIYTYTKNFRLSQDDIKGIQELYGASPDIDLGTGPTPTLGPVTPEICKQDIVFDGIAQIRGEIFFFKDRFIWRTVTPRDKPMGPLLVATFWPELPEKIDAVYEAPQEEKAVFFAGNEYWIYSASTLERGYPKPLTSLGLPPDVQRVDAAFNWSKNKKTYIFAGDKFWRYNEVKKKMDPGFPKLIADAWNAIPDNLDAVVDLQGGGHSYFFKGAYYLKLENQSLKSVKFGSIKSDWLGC
Chain of Matrix metalloproteinase-15 (P51511 whole entry): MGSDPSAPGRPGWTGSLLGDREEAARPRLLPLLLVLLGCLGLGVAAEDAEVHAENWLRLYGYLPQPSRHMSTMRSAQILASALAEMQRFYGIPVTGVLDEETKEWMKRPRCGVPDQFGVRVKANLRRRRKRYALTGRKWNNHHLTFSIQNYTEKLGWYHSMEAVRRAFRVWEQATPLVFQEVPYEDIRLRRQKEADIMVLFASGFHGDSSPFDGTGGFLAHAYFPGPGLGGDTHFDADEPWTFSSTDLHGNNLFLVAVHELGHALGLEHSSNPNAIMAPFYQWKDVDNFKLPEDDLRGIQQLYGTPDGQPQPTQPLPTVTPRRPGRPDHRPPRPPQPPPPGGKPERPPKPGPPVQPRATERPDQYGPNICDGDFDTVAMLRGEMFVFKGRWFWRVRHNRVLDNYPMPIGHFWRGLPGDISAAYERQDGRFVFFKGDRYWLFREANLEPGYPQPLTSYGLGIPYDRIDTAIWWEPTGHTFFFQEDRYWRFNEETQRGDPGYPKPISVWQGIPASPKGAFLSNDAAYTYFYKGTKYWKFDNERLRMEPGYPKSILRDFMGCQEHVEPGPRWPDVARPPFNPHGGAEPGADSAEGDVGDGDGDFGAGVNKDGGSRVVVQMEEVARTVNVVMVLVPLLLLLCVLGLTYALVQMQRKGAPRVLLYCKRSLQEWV
Chain of Matrix metalloproteinase-16 (P51512 whole entry): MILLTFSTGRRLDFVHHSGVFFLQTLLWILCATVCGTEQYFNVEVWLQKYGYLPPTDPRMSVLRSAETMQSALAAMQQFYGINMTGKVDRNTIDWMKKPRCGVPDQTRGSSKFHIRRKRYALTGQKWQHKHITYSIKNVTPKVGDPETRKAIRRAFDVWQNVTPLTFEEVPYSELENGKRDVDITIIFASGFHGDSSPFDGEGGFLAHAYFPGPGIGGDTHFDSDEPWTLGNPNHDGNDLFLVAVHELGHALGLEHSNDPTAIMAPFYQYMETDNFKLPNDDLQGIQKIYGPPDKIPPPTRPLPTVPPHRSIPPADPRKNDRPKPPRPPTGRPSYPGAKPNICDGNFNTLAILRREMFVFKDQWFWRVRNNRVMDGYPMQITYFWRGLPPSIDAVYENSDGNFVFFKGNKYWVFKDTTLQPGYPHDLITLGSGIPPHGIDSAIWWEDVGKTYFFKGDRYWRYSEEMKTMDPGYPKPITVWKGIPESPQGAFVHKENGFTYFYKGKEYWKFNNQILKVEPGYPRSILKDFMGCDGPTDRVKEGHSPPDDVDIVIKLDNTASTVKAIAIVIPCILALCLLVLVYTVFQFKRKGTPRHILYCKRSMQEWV

| SMILES | IC50 [1] | IC50 [2] | IC50 [3] | IC50 [4] | IC50 [5] | IC50 [6] | IC50 [7] | IC50 [8] | IC50 [9] | IC50 [10] | IC50 [11] | IC50 [12] |
| --- | --- | --- | --- | --- | --- | --- | --- | --- | --- | --- | --- | --- |
| O=C(NO)C1c2ccc(O)cc2CCN1S(=O)(=O)c1ccccc1 (configuration not stated) | 218 nM | 184 nM | Not Active | 858 nM | 430 nM | 1100 nM | 6320 nM | 335 nM | 421 nM |  |  |  |
| Cc1ccc(S(=O)(=O)N2CCc3cc(OCc4ccccc4)ccc3C2C(=O)NO)cc1 (configuration not stated) | 44 nM | 56 nM |  | 2050 nM | 33 nM | 62 nM | 462 nM | 130 nM | 72 nM | 12000 nM |  |  |
| O=C(NO)C1c2ccc(O)cc2CCN1S(=O)(=O)c1ccc([N+](=O)[O-])cc1 (configuration not stated) | 126 nM | 177 nM |  | 791 nM | 76 nM | 521 nM | 41 nM | 258 nM | 59 nM | 21400 nM |  |  |
| O=C(NO)C1c2ccc(OCc3ccccc3)cc2CCN1S(=O)(=O)c1cc(Cl)ccc1Cl (configuration not stated) | 7300 nM | 4630 nM | Not Active |  | 1100 nM | 20800 nM |  | 3120 nM | 931 nM |  | Not Active | Not Active |
| O=C(NO)C1c2ccc(OCc3ccccc3)cc2CCN1S(=O)(=O)c1ccccc1 (configuration not stated) | 17 nM | 35 nM |  | 1450 nM | 24 nM | 39 nM | 452 nM | 35 nM | 57 nM | 7140 nM |  |  |
| Cc1ccc(S(=O)(=O)N2CCc3cc(O)ccc3C2C(=O)NO)cc1 (configuration not stated) | 19 nM | 21 nM |  | 97 nM | 18 nM | 52 nM | 152 nM | 40 nM | 29 nM | 10500 nM |  |  |
| COc1cc2c(cc1O)CCN(S(=O)(=O)c1ccccc1)C2C(=O)NO (configuration not stated) | 29 nM | 40 nM |  | 146 nM | 27 nM | 867 nM | 595 nM | 100 nM | 65 nM | 10700 nM |  |  |
| COc1ccc(S(=O)(=O)N2CCc3cc(O)c(OC)cc3C2C(=O)NO)cc1 (configuration not stated) | 6 nM | 16 nM |  | 86 nM | 26 nM | 68 nM | 123 nM | 46 nM | 20 nM | 3190 nM |  |  |
| Nc1ccc(S(=O)(=O)N2CCc3cc(O)ccc3C2C(=O)NO)cc1 (configuration not stated) | 385 nM | 202 nM | Not Active | 492 nM | 150 nM | 835 nM | 13200 nM | 248 nM | 191 nM |  |  |  |
| COc1ccc(S(=O)(=O)N2CCc3cc(O)ccc3C2C(=O)NO)cc1 (configuration not stated) | 621 nM | 1680 nM | Not Active | 7510 nM | 724 nM | 3110 nM | 15000 nM | 4100 nM | 7690 nM |  |  |  |
| COc1ccc(S(=O)(=O)N2CCc3cc(OCc4ccccc4)ccc3C2C(=O)NO)cc1 (configuration not stated) | 4 nM | 22 nM |  | 744 nM | 16 nM | 34 nM | 88 nM | 30 nM | 57 nM | 2420 nM |  |  |
| O=C(NO)C1c2ccc(O)cc2CCN1S(=O)(=O)c1cc(Cl)ccc1Cl (configuration not stated) | 1790 nM | 1840 nM |  | 7900 nM | 853 nM | 4610 nM |  | 1880 nM | 170 nM | 21400 nM | Not Active |  |
| CNC(=O)[C@H](Cc1c[nH]c2ccccc12)NC(=O)[C@@H](CC(=O)NO)CC(C)C [ILOMASTAT] |  | 8 nM |  | 17 nM |  | 23 nM |  |  | 13 nM |  |  |  |
